11 compounds from ChEMBL document CHEMBL1201862, “PubChem BioAssay data set” (2004) can be followed below.

Test systems include NCI-H460; LOX IMVI; ACHN; A498; OVCAR-3; K562; SNB-19; HCT-116; 786-0; SK-MEL-2; UO-31; SR; HCT-15; UACC-62; RXF 393; KM12; Malme-3M; TK-10; MCF7.
What all share (assay): NCI tumour cell line growth inhibition, 48 h

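These data come from cells grown in 96-well plates and exposed to compound for 48 hours at five concentrations. Here, GI50 denotes the concentration required for 50% inhibition of growth.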 Activity calls are given as the source filed them. Rule as the data show it: active = GI50 up to about 1.1 µM and inactive = higher.

As for `COC(=O)C(C)(C)/N=C/N(C)C`, the GI50 with NCI-H460 is > 100 µM (inactive); with LOX IMVI it was 68.2 µM (inactive); with ACHN it was > 100 µM (inactive); in the assay with A498 it was > 100 µM (inactive); with OVCAR-3 it was > 100 µM (inactive); in the assay with K562 it was > 100 µM (inactive). Besides, the GI50 in the assay with SNB-19, in the assay with HCT-116, in the assay with 786-0, in the assay with SK-MEL-2, in the assay on UO-31 and with SR was > 100 µM (inactive) in each case. Further, the GI50 in the assay with HCT-15 is above 100 µM; with UACC-62, > 100 µM (inactive); with RXF 393, 86.5 µM (inactive); with KM12, > 100 µM (inactive); in the assay on Malme-3M, > 100 µM (inactive); in the assay with TK-10, > 100 µM (inactive).

As to `Clc1ccccc1C(n1cc(Br)cn1)n1cc(Br)cn1`, the GI50 with NCI-H460 is 14.7 µM (inactive); in the assay on LOX IMVI it was 17 µM (inactive); in the assay with ACHN, 16.5 µM (inactive); in the assay with A498 it was 17.1 µM (inactive); in the assay with OVCAR-3, > 10 µM (inactive); in the assay with K562, 19.1 µM (inactive). Also, the GI50 was 27.4 µM (inactive) in the assay with SNB-19; 15 µM (inactive) with HCT-116; > 10 µM (inactive) with 786-0; 18.2 µM (inactive) in the assay with SK-MEL-2; 12.6 µM (inactive) with UO-31; 18.8 µM (inactive) in the assay on SR. Moreover, the GI50 is above 10 µM in the assay on HCT-15; > 10 µM (inactive) with UACC-62; 16.7 µM (inactive) in the assay with RXF 393; 15.3 µM (inactive) with KM12; 17.2 µM (inactive) in the assay on Malme-3M; 23.6 µM (inactive) with TK-10.

For `COC(=O)C1=C(c2ccc3c(c2)OCO3)O[C@H](c2cc(OC)c(OC)c(OC)c2)[C@H]1COC(C)=O`, the GI50 in the assay on NCI-H460 was 4.3 µM (inactive); with LOX IMVI it was 8.91 µM (inactive); in the assay on ACHN, 4.91 µM (inactive); with A498, 0.352 µM (active); in the assay with OVCAR-3 it was 1.19 µM (inactive); in the assay on K562 it was 3.22 µM (inactive). Besides, the GI50 with HCT-116 is 4.55 µM (inactive); with 786-0, 4.12 µM (inactive); in the assay with SK-MEL-2, 12.6 µM (inactive); in the assay with UO-31, 4.31 µM (inactive); with SR, 1.35 µM (inactive); in the assay on HCT-15 it was 5.68 µM. In addition, the GI50 in the assay on UACC-62 was 3.32 µM (inactive); in the assay on RXF 393, 1.57 µM (inactive); with KM12, 4.31 µM (inactive); in the assay on Malme-3M, 1.99 µM (inactive); in the assay with TK-10, 13.5 µM (inactive).

For the compound `Cc1cccnc1N/C=C1\C(=O)NC(=O)N(C)C1=O`, the GI50 is > 100 µM (inactive) in the assay with NCI-H460; 93.8 µM (inactive) in the assay on LOX IMVI; > 100 µM (inactive) in the assay with MCF7; > 100 µM (inactive) with ACHN; 12.3 µM (inactive) with A498; > 100 µM (inactive) in the assay on OVCAR-3. Further, the GI50 in the assay on SNB-19 was > 100 µM (inactive); in the assay with HCT-116, > 100 µM (inactive); in the assay on 786-0 it was > 100 µM (inactive); in the assay with SK-MEL-2, > 100 µM (inactive); in the assay on UO-31, > 100 µM (inactive); in the assay on HCT-15, above 100 µM. The GI50 with UACC-62 is > 100 µM (inactive); in the assay on KM12, > 100 µM (inactive); in the assay on Malme-3M, 13 µM (inactive); in the assay on TK-10, > 100 µM (inactive).

Regarding `CC(=O)C1CC=C(C)CC1` (centres undefined), the GI50 in the assay with NCI-H460, in the assay with LOX IMVI, with ACHN, in the assay with A498, in the assay on OVCAR-3 and in the assay on K562 was > 100 µM (inactive) each time. The GI50 in the assay on SNB-19, in the assay with HCT-116, in the assay on 786-0, in the assay on SK-MEL-2, in the assay with UO-31 and with SR was > 100 µM (inactive) each time. Also, the GI50 in the assay on HCT-15 is above 100 µM; with UACC-62, > 100 µM (inactive); with RXF 393, > 100 µM (inactive); in the assay with KM12 it was > 100 µM (inactive); with Malme-3M it was > 100 µM (inactive); in the assay on TK-10, > 100 µM (inactive).

In the case of `O=C1c2ccc3c4ccccc4n(-c4ccccc4)c3c2C(=O)N1c1ccc(Cl)cc1`, the GI50 in the assay with NCI-H460, with LOX IMVI, with ACHN, in the assay on A498, with OVCAR-3 and with K562 was > 100 µM (inactive) in each case. Besides, the GI50 in the assay on SNB-19, in the assay on HCT-116, with 786-0, in the assay on SK-MEL-2, in the assay with UO-31 and in the assay with SR was > 100 µM (inactive) in each case. The GI50 in the assay on HCT-15 is above 100 µM; in the assay with UACC-62, > 100 µM (inactive); in the assay on RXF 393, > 100 µM (inactive); in the assay with KM12, > 100 µM (inactive); in the assay on Malme-3M it was > 100 µM (inactive); in the assay on TK-10 it was > 100 µM (inactive).

As for `CC(=O)Nc1ccc(NC(=O)c2c(Cl)c(Cl)c(Cl)c(Cl)c2-c2nc3ccccc3[nH]2)cc1`, the GI50 with NCI-H460 is 24.7 µM (inactive); with MCF7 it was 26.7 µM (inactive); with ACHN it was 39.2 µM (inactive); with A498, 35 µM (inactive); in the assay with OVCAR-3, 48.1 µM (inactive); with K562, 27.5 µM (inactive). The GI50 was 54.2 µM (inactive) with SNB-19; 32.1 µM (inactive) in the assay on HCT-116; 49.1 µM (inactive) in the assay with 786-0; 47.5 µM (inactive) in the assay with UO-31; 27.2 µM (inactive) in the assay with SR; 85.1 µM with HCT-15. Also, the GI50 in the assay with UACC-62 is 27.8 µM (inactive); with RXF 393, 29.4 µM (inactive); in the assay with KM12, 28.2 µM (inactive); with Malme-3M it was 51.4 µM (inactive).

With `COC1(OC)CCCCCCCCC(OC)(OC)CCCCCCCC1`, the GI50 in the assay with NCI-H460, in the assay on LOX IMVI, with MCF7, in the assay with ACHN, in the assay on A498 and in the assay on OVCAR-3 was > 100 µM (inactive) each time. Further, the GI50 with K562 was > 100 µM (inactive); in the assay with SNB-19, > 100 µM (inactive); with HCT-116 it was > 100 µM (inactive); with 786-0 it was > 100 µM (inactive); in the assay with SK-MEL-2 it was > 100 µM (inactive); with UO-31, 0.553 µM (active). Besides, the GI50 with SR was > 100 µM (inactive); in the assay with HCT-15, above 100 µM; in the assay on UACC-62 it was > 100 µM (inactive); in the assay with RXF 393 it was > 100 µM (inactive); in the assay on KM12 it was > 100 µM (inactive); in the assay with Malme-3M, > 100 µM (inactive). For the same compound, the GI50 in the assay on TK-10 is > 100 µM (inactive).

Regarding `CC(=O)O[C@]1(C)OC(=O)[C@@H](C)N1[N+](=O)[O-]`, the GI50 in the assay with NCI-H460 is 39.2 µM (inactive); with LOX IMVI it was 72.3 µM (inactive); in the assay on ACHN it was 60 µM (inactive); in the assay with A498, > 100 µM (inactive); with OVCAR-3, > 100 µM (inactive); in the assay with K562, > 100 µM (inactive). For the same compound, the GI50 with SNB-19 was > 100 µM (inactive); with HCT-116, > 100 µM (inactive); with 786-0, > 100 µM (inactive); with SK-MEL-2 it was > 100 µM (inactive); in the assay on UO-31, > 100 µM (inactive); with SR, 34.9 µM (inactive). Further, the GI50 in the assay on HCT-15 is above 100 µM; with UACC-62, > 100 µM (inactive); with RXF 393 it was > 100 µM (inactive); with KM12 it was > 100 µM (inactive); in the assay with Malme-3M it was > 100 µM (inactive); with TK-10 it was > 100 µM (inactive).

Regarding `CCCCCCc1cc2cc(C(=O)Nc3cccc(F)c3)c(=N)oc2cc1O`, the GI50 was 3.19 µM (inactive) in the assay on NCI-H460; 1.67 µM (inactive) in the assay with LOX IMVI; 3.19 µM (inactive) in the assay on MCF7; 3.16 µM (inactive) in the assay on ACHN; 3.02 µM (inactive) in the assay with A498; 4.19 µM (inactive) in the assay on OVCAR-3. Moreover, the GI50 is 1.15 µM (inactive) in the assay on K562; 3.55 µM (inactive) in the assay on SNB-19; 2.86 µM (inactive) in the assay with HCT-116; 3.28 µM (inactive) in the assay on 786-0; 2.16 µM (inactive) in the assay with SK-MEL-2; 2.73 µM (inactive) with UO-31. Moreover, the GI50 in the assay on SR is 2.17 µM (inactive); in the assay with HCT-15, 2.31 µM; in the assay with UACC-62, 1.94 µM (inactive); in the assay with KM12 it was 2.71 µM (inactive); in the assay on Malme-3M it was 2.31 µM (inactive).

On to `Cn1cc(NC(=O)c2cc(NC(=O)CNC(=N)N)cn2C)cc1C(=O)NCCC(=N)N` [NETROPSIN CHLORIDE], for which the GI50 with NCI-H460, in the assay on LOX IMVI, in the assay with MCF7, with ACHN, in the assay with A498 and in the assay on OVCAR-3 was > 100 µM (inactive) throughout. The GI50 in the assay with K562, in the assay on SNB-19, in the assay with HCT-116, with 786-0, in the assay on SK-MEL-2 and in the assay on UO-31 was > 100 µM (inactive) each time. Also, the GI50 in the assay on SR was > 100 µM (inactive); in the assay on HCT-15, above 100 µM; in the assay with UACC-62 it was > 100 µM (inactive); in the assay with RXF 393, > 100 µM (inactive); in the assay with KM12 it was > 100 µM (inactive); in the assay with Malme-3M it was 41.7 µM (inactive). Moreover, in the assay on TK-10, the GI50 was > 100 µM (inactive).
